# Experimental data published in PMC10906926 (Science Advances, 2024).
# Test system: DIO mice
# Assay: Weight loss recovery of mPD5 relative to liraglutide
# Assay type: in vivo
# Conditions: 0.09 mg kg−1 s.c. once daily for 9 days
substance,measurement,value
liraglutide,Weight regain upon treatment cessation,promptly initiated weight regain upon treatment cessation
